Assay results taken from ChEMBL document CHEMBL1201862, “PubChem BioAssay data set” (2004).
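Following 48 hours of exposure in 96-well plates, responses at five concentrations were used to interpolate endpoints linearly. GI50 = concentration required for 50% inhibition of growth.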 The source made the active and inactive calls. Rule as the data show it: active = GI50 up to about 1.1 µM and inactive = higher.

How the values were obtained:
Experiment in all cases: DTP human tumour cell line panel, 48 h
HCT-15 = tested on: HCT-15
COLO 205 = tested on: COLO 205
SNB-19 = tested on: SNB-19
HCT-116 = tested on: HCT-116
K562 = tested on: K562
RXF 393 = tested on: RXF 393
NCI-H23 = tested on: NCI-H23
OVCAR-3 = tested on: OVCAR-3
TK-10 = tested on: TK-10
786-0 = tested on: 786-0
M14 = tested on: M14
SF-295 = tested on: SF-295
CCRF-CEM = tested on: CCRF-CEM
HL-60 = tested on: HL-60
UACC-257 = tested on: UACC-257

Row | Structure (SMILES) | GI50 (HCT-15) [µM] | GI50 (COLO 205) | GI50 (SNB-19) | GI50 (HCT-116) | GI50 (K562) | GI50 (RXF 393) | GI50 (NCI-H23) | GI50 (OVCAR-3) | GI50 (TK-10) | GI50 (786-0) | GI50 (M14) | GI50 (SF-295) | GI50 (CCRF-CEM) | GI50 (HL-60) | GI50 (UACC-257)
1 | Cc1n[nH]c(=S)n(C)c1=S | > 100 | > 100 µM (inactive) | > 100 µM (inactive) | > 100 µM (inactive) | > 100 µM (inactive) | > 100 µM (inactive) | > 100 µM (inactive) | > 100 µM (inactive) | > 100 µM (inactive) | > 100 µM (inactive) | > 100 µM (inactive) | > 100 µM (inactive) | > 100 µM (inactive) |  | 
2 | CC1=C(C(=O)CC(=O)C(=O)Nc2ccccc2C)Sc2ccccc2N1 | > 100 | > 42.7 µM (inactive) | > 100 µM (inactive) | > 40.6 µM (inactive) | > 56.9 µM (inactive) | > 57.4 µM (inactive) | > 100 µM (inactive) | > 100 µM (inactive) | > 100 µM (inactive) | > 45.5 µM (inactive) | > 100 µM (inactive) | > 100 µM (inactive) | > 57.1 µM (inactive) | > 60.5 µM (inactive) | > 100 µM (inactive)
3 | CN(C)C(=S)/N=c1\ssc(=S)n1Cc1ccncc1 | 17.5 | > 100 µM (inactive) | 29.2 µM (inactive) | 18.3 µM (inactive) | 18.3 µM (inactive) | 25.5 µM (inactive) | 23.9 µM (inactive) | 13.3 µM (inactive) | 25 µM (inactive) | 21.7 µM (inactive) | 20.6 µM (inactive) | 29.8 µM (inactive) | 5.81 µM (inactive) |  | 26.7 µM (inactive)
4 | CC1CC[C@]2(C(=O)O)CCC3(C)C(=CCC4[C@@]5(C)CC[C@H](OS(=O)(=O)c6ccccc6)C(C)(C)C5CC[C@]43C)[C@@H]2[C@H]1C (some centres not stated) |  | 38.1 µM (inactive) | > 100 µM (inactive) | 27.2 µM (inactive) | 51.4 µM (inactive) |  | 52.7 µM (inactive) | > 100 µM (inactive) | > 100 µM (inactive) | > 100 µM (inactive) | > 100 µM (inactive) | > 100 µM (inactive) | 78 µM (inactive) |  | > 100 µM (inactive)
5 | COc1cc([C@@H]2c3cc4c(cc3[C@@H](NC(=O)c3ccc([N+](=O)[O-])cc3)C3COC(=O)[C@@H]32)OCO4)cc(OC)c1O (some centres not stated) | 1.57 | 2.13 µM (inactive) | 0.315 µM (active) | 0.678 µM (active) | 0.889 µM (active) | 2.55 µM (inactive) | 0.258 µM (active) | 1.76 µM (inactive) | 2.03 µM (inactive) | 0.242 µM (active) | 0.653 µM (active) | 0.249 µM (active) | 0.124 µM (active) | 0.0432 µM (active) | 3.16 µM (inactive)
6 | COc1ccc(N2C(=O)C3CC(c4ccc(Br)cc4)c4c([nH]c5ccccc45)C3C2=O)cc1 (configuration not stated) | 90.6 | 9.02 µM (inactive) | 3.43 µM (inactive) | 6.4 µM (inactive) | 5.37 µM (inactive) |  | 11.4 µM (inactive) |  | 7.1 µM (inactive) | 2.2 µM (inactive) | 19.5 µM (inactive) | 10.8 µM (inactive) | 8.59 µM (inactive) | 12.8 µM (inactive) | 17.3 µM (inactive)
7 | CN(C)CCC(/C=C/c1ccccc1)=N\Nc1ccc(Cl)cc1Cl | 11.9 | 14.6 µM (inactive) | 15.5 µM (inactive) | 14.5 µM (inactive) | 13.1 µM (inactive) | 8.77 µM (inactive) | 17.1 µM (inactive) | 14.1 µM (inactive) | 14.2 µM (inactive) | 12.9 µM (inactive) | 13.7 µM (inactive) | 16.6 µM (inactive) | 10.5 µM (inactive) | 2.29 µM (inactive) | 13.9 µM (inactive)
8 | NC1=NN(c2ccccc2)C(=O)C1/C(=N\NC(=O)c1cc2ccccc2cc1O)C(=O)Nc1ccc(Cl)cc1 (configuration not stated) | 10.5 | 23.1 µM (inactive) | 37.8 µM (inactive) | 11.9 µM (inactive) | 10.1 µM (inactive) |  | 24.7 µM (inactive) | 10.9 µM (inactive) | 37.1 µM (inactive) | 20.2 µM (inactive) | 20.7 µM (inactive) | 35.5 µM (inactive) | 3.73 µM (inactive) | 3.57 µM (inactive) | 28.6 µM (inactive)
9 | CCCCc1c2c([n+]([O-])c3c1CCCC3)CCCC2 | 21.6 | > 100 µM (inactive) | 44.4 µM (inactive) | 65.2 µM (inactive) | 3.56 µM (inactive) |  | > 100 µM (inactive) | 31 µM (inactive) | > 100 µM (inactive) | > 100 µM (inactive) | > 10 µM (inactive) | 28 µM (inactive) | 19.3 µM (inactive) | 38.1 µM (inactive) | 40.6 µM (inactive)
10 | Oc1ccc(Br)cc1/C=N/c1ccc(Oc2ccc(/N=C/c3cc(Br)ccc3O)cc2)cc1 |  | > 19.6 µM (inactive) | > 19.6 µM (inactive) | > 19.6 µM (inactive) | > 19.6 µM (inactive) | > 19.6 µM (inactive) | > 19.6 µM (inactive) | > 19.6 µM (inactive) | > 19.6 µM (inactive) | > 19.6 µM (inactive) | > 19.6 µM (inactive) | > 19.6 µM (inactive) | > 19.6 µM (inactive) | > 19.6 µM (inactive) | > 19.6 µM (inactive)
11 | COc1ccc(/C=C\c2cc(OC)c(OC)c(OC)c2)cc1 | 0.000448 | 0.0291 µM (active) | 0.0013 µM (active) | 0.000279 µM (active) | 0.000102 µM (active) |  | 0.000357 µM (active) | < 0.0001 µM (active) |  | 0.000395 µM (active) | 0.00024 µM (active) | 0.000185 µM (active) | 0.000269 µM (active) | 0.000244 µM (active) | < 0.01 µM (active)
12 | CCO/C([O-])=C(\C(=O)c1ccc([N+](=O)[O-])cc1)[n+]1c(C)n(C)c2ccccc21 |  | > 100 µM (inactive) | > 100 µM (inactive) | > 100 µM (inactive) | > 100 µM (inactive) | > 100 µM (inactive) | > 100 µM (inactive) | > 100 µM (inactive) | > 100 µM (inactive) | > 100 µM (inactive) | > 100 µM (inactive) | > 100 µM (inactive) | > 100 µM (inactive) | > 100 µM (inactive) | > 100 µM (inactive)
13 | CC1(C)C(=O)C(=Cc2ccco2)C1=O | > 100 | > 100 µM (inactive) |  | > 100 µM (inactive) | > 100 µM (inactive) |  | > 100 µM (inactive) |  | > 100 µM (inactive) | > 100 µM (inactive) | > 100 µM (inactive) | > 100 µM (inactive) | > 100 µM (inactive) | > 100 µM (inactive) | > 100 µM (inactive)
14 | N#Cc1c(C[n+]2ccccc2)c2ccccc2oc1=O | > 100 | > 100 µM (inactive) | > 100 µM (inactive) | > 100 µM (inactive) | > 100 µM (inactive) |  | > 100 µM (inactive) | > 100 µM (inactive) |  | > 100 µM (inactive) | > 100 µM (inactive) | > 100 µM (inactive) | > 100 µM (inactive) |  | > 100 µM (inactive)
15 | Cc1cc2nc3c(C(OC4OC(CO)C(O)C(O)C4O)C(O)CO)nn(-c4ccc(F)cc4)c3nc2cc1C (configuration not stated) | > 100 |  | > 100 µM (inactive) | > 100 µM (inactive) | > 100 µM (inactive) | > 100 µM (inactive) | > 100 µM (inactive) | > 100 µM (inactive) | > 100 µM (inactive) | > 100 µM (inactive) | > 100 µM (inactive) | > 100 µM (inactive) | > 100 µM (inactive) |  | > 100 µM (inactive)
16 | N#Cc1c2ccccc2c(Cc2ccc3c(c2)OCCOCCOCCOCCOCCO3)c2ccccc12 | 5.57 |  | 9.66 µM (inactive) | 6.12 µM (inactive) | 3.15 µM (inactive) | 2.32 µM (inactive) | 11.4 µM (inactive) | 4.23 µM (inactive) | 5.01 µM (inactive) | 10.9 µM (inactive) | 5.37 µM (inactive) | 8.69 µM (inactive) | 3.21 µM (inactive) | 1.85 µM (inactive) | 9.27 µM (inactive)
17 | CCOc1ccc2c(c1)[n+]([O-])c(-c1ccc(Cl)cc1)c(N)[n+]2[O-] | > 100 | > 100 µM (inactive) | > 100 µM (inactive) | > 100 µM (inactive) | > 100 µM (inactive) |  | > 100 µM (inactive) | > 100 µM (inactive) |  | > 100 µM (inactive) | > 100 µM (inactive) | > 100 µM (inactive) |  | 44 µM (inactive) | > 100 µM (inactive)
18 | Cc1nc2ccccc2c(=O)n1-c1ccccc1I | > 100 | > 100 µM (inactive) | > 100 µM (inactive) | > 100 µM (inactive) | 96.4 µM (inactive) |  | > 100 µM (inactive) | > 100 µM (inactive) | > 100 µM (inactive) | > 100 µM (inactive) | > 100 µM (inactive) | > 100 µM (inactive) | > 100 µM (inactive) | > 100 µM (inactive) | > 100 µM (inactive)
19 | CCOC(=O)C(=O)Nc1c(C)cccc1C | > 100 | > 100 µM (inactive) | > 100 µM (inactive) | > 100 µM (inactive) |  | > 100 µM (inactive) | > 100 µM (inactive) | > 100 µM (inactive) | > 100 µM (inactive) | > 100 µM (inactive) | > 100 µM (inactive) | > 100 µM (inactive) |  |  | > 100 µM (inactive)
20 | CC1=C(c2nc3ccccc3s2)C(=O)OC1(C)C | > 100 | > 100 µM (inactive) | > 100 µM (inactive) | > 100 µM (inactive) | > 100 µM (inactive) |  | > 100 µM (inactive) | > 100 µM (inactive) |  | > 100 µM (inactive) | > 100 µM (inactive) | > 100 µM (inactive) | > 100 µM (inactive) |  | > 100 µM (inactive)
